Columns and labels:
CDK2 = target: T1, CDK2 (Homo sapiens, UniProt P24941); test: CDK protein degradation activity (Western blotting), CDK2; type: cell-based; conditions: MDA-MB-231 cells, 16 hours, Western blot
T1 construct: endogenous in cells; host or cells: MDA-MB-231
In short: (§1)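 MDA-MB-231; cmpd 100 nM / 1 μM / 10 μM final vs DMSO, 16 h. Triton X-100 lysates (pH 7.5, phosphatase/protease inhibitors) → SDS-PAGE → Western blot, anti-CDK2, anti-CDK9, tubulin loading control; densitometry.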

CDK9 = target: T2, CDK9 (Homo sapiens, UniProt P50750); test: CDK protein degradation activity (Western blotting), CDK9; type: cell-based; conditions: MDA-MB-231 cells, 16 hours, Western blot
T2 construct: endogenous in cells; host or cells: MDA-MB-231
T2 sequence (P50750 whole entry): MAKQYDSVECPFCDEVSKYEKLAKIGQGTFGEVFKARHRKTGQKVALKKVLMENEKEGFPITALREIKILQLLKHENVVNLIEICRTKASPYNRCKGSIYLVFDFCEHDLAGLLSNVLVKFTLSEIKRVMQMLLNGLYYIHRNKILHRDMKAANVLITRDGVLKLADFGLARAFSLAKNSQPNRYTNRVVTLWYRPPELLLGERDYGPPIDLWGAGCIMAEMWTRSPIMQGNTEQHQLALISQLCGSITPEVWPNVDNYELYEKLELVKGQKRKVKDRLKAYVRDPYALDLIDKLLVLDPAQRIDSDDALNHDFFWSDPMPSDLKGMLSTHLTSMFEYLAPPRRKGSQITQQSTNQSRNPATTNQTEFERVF
In short: as §1

Question: Which results are given for `O=C1CC[C@H](N2C(=O)c3cccc(NCC(=O)N4CCC(CN5CCN(c6ccc(Nc7ncnc8c7ncn8[C@H]7C[C@@H](NC(=O)c8c(Cl)cccc8Cl)C7)cc6)CC5)CC4)c3C2=O)C(=O)N1` [Compound 165, 2,6-dichloro-N-((1s,3s)-3-(6-((4-(4-((1-((2-(2,6-dioxopiperidin-3-yl)-1,3-dioxoisoindolin-4-yl)glycyl)piperidin-4-yl)methyl)piperazin-1-yl)phenyl)amino)-9H-purin-9-yl)cyclobutyl)benzamide]?
Answer: Enzyme degradation CDK2 (% remaining) @ 0.1 μM (CDK2): 10/10/10%; Enzyme degradation CDK2 (% remaining) @ 1 μM (CDK2): 10/10/10%; Enzyme degradation CDK2 (% remaining) @ 10 μM (CDK2): 10/10/10%; Enzyme degradation CDK9 (% remaining) @ 0.1 μM (CDK9): 0/0/0%; Enzyme degradation CDK9 (% remaining) @ 1 μM (CDK9): 0/0/0%; Enzyme degradation CDK9 (% remaining) @ 10 μM (CDK9): 0/0/0%

Question: `O=C1CC[C@H](N2C(=O)c3ccc(N4CCC(CN5CCN(c6ccc(Nc7ncnc8c7ncn8C7CC(NC(=O)c8c(Cl)cccc8Cl)C7)cc6)CC5)CC4)cc3C2=O)C(=O)N1` (stereo partly drawn) [Compound 166, 2,6-dichloro-N-((1s,3s)-3-(6-((4-(4-((1-(2-(2,6-dioxopiperidin-3-yl)-1,3-dioxoisoindolin-5-yl)piperidin-4-yl)methyl)piperazin-1-yl)phenyl)amino)-9H-purin-9-yl)cyclobutyl)benzamide] was tested. Which “Enzyme degradation CDK2 (% remaining) @ 0.1 μM” value (CDK2) did it give?
Answer: 10%

Question: What about the “Enzyme degradation CDK2 (% remaining) @ 1 μM” value (CDK2) of the same molecule?
Answer: 20%

Question: And the “Enzyme degradation CDK2 (% remaining) @ 10 μM” value (CDK2)?
Answer: 20%

Question: What about the “Enzyme degradation CDK9 (% remaining) @ 0.1 μM” value (CDK9) of the same molecule?
Answer: 0/0/0%

Question: What about the “Enzyme degradation CDK9 (% remaining) @ 1 μM” value (CDK9) of the same molecule?
Answer: 0/0/0%

Question: And the “Enzyme degradation CDK9 (% remaining) @ 10 μM” value (CDK9)?
Answer: 0/0/0%

Question: With `O=C1CC[C@H](N2C(=O)c3cccc(N4CCC(CN5CCN(c6ccc(Nc7ncnc8c7ncn8[C@H]7C[C@@H](NC(=O)c8c(Cl)cccc8Cl)C7)cc6)CC5)CC4)c3C2=O)C(=O)N1` [Compound 167, 2,6-dichloro-N-((1s,3s)-3-(6-((4-(4-((1-(2-(2,6-dioxopiperidin-3-yl)-1,3-dioxoisoindolin-4-yl)piperidin-4-yl)methyl)piperazin-1-yl)phenyl)amino)-9H-purin-9-yl)cyclobutyl)benzamide] as the molecule, how does the “Enzyme degradation CDK2 (% remaining) @ 0.1 μM” value (CDK2) read?
Answer: 30%

Question: And the “Enzyme degradation CDK2 (% remaining) @ 1 μM” value (CDK2)?
Answer: 40%

Question: What about the “Enzyme degradation CDK2 (% remaining) @ 10 μM” value (CDK2) of the same molecule?
Answer: 30%

Question: What about the “Enzyme degradation CDK9 (% remaining) @ 0.1 μM” value (CDK9) of the same molecule?
Answer: 0/0/0%

Question: What about the “Enzyme degradation CDK9 (% remaining) @ 1 μM” value (CDK9) of the same molecule?
Answer: 0/0/0%

Question: And the “Enzyme degradation CDK9 (% remaining) @ 10 μM” value (CDK9)?
Answer: 0/0/0%

Question: What does the source list for `O=C1CC[C@H](N2C(=O)c3cccc(OCC(=O)N4CCC(CN5CCC(CNc6ncnc7c6ncn7C6CC(NC(=O)c7c(Cl)cccc7Cl)C6)CC5)CC4)c3C2=O)C(=O)N1` (stereo partly drawn) [Compound 168, 2,6-dichloro-N-((1s,3s)-3-(6-(((1-((1-(2-((2-(2,6-dioxopiperidin-3-yl)-1,3-dioxoisoindolin-4-yl)oxy)acetyl)piperidin-4-yl)methyl)piperidin-4-yl)methyl)amino)-9H-purin-9-yl)cyclobutyl)benzamide]?
Answer: Enzyme degradation CDK2 (% remaining) @ 0.1 μM (CDK2): 50%; Enzyme degradation CDK2 (% remaining) @ 1 μM (CDK2): 10%; Enzyme degradation CDK2 (% remaining) @ 10 μM (CDK2): 10%; Enzyme degradation CDK9 (% remaining) @ 0.1 μM (CDK9): 80%; Enzyme degradation CDK9 (% remaining) @ 1 μM (CDK9): 40%; Enzyme degradation CDK9 (% remaining) @ 10 μM (CDK9): 10%

Question: What does the source list for `O=C1CC[C@H](N2C(=O)c3ccc(OCC(=O)N4CCC(CN5CCC(CNc6ncnc7c6ncn7C6CC(NC(=O)c7c(Cl)cccc7Cl)C6)CC5)CC4)cc3C2=O)C(=O)N1` (stereo partly drawn) [Compound 169, 2,6-dichloro-N-((1s,3s)-3-(6-(((1-((1-(2-((2-(2,6-dioxopiperidin-3-yl)-1,3-dioxoisoindolin-5-yl)oxy)acetyl)piperidin-4-yl)methyl)piperidin-4-yl)methyl)amino)-9H-purin-9-yl)cyclobutyl)benzamide]?
Answer: Enzyme degradation CDK2 (% remaining) @ 0.1 μM (CDK2): 80%; Enzyme degradation CDK2 (% remaining) @ 1 μM (CDK2): 70%; Enzyme degradation CDK2 (% remaining) @ 10 μM (CDK2): 70%; Enzyme degradation CDK9 (% remaining) @ 0.1 μM (CDK9): 10%; Enzyme degradation CDK9 (% remaining) @ 1 μM (CDK9): 0%; Enzyme degradation CDK9 (% remaining) @ 10 μM (CDK9): 0%

Question: Which “Enzyme degradation CDK2 (% remaining) @ 0.1 μM” value (CDK2) does the source give for `O=C1CC[C@H](N2C(=O)c3cccc(NCC(=O)N4CCC(CN5CCC(CNc6ncnc7c6ncn7[C@H]6C[C@@H](NC(=O)c7c(Cl)cccc7Cl)C6)CC5)CC4)c3C2=O)C(=O)N1` [Compound 170, 2,6-dichloro-N-((1s,3s)-3-(6-(((1-((1-((2-(2,6-dioxopiperidin-3-yl)-1,3-dioxoisoindolin-4-yl)glycyl)piperidin-4-yl)methyl)piperidin-4-yl)methyl)amino)-9H-purin-9-yl)cyclobutyl)benzamide] here?
Answer: 0%

Question: What about the “Enzyme degradation CDK2 (% remaining) @ 1 μM” value (CDK2) of the same molecule?
Answer: 10%

Question: And the “Enzyme degradation CDK2 (% remaining) @ 10 μM” value (CDK2)?
Answer: 20%

Question: What about the “Enzyme degradation CDK9 (% remaining) @ 0.1 μM” value (CDK9) of the same molecule?
Answer: 10%

Question: And the “Enzyme degradation CDK9 (% remaining) @ 1 μM” value (CDK9)?
Answer: 0%

Question: And the “Enzyme degradation CDK9 (% remaining) @ 10 μM” value (CDK9)?
Answer: 10%

Question: What does the source list for `O=C1CCC(N2C(=O)c3ccc(NCC(=O)N4CCC(CN5CCC(CNc6ncnc7c6ncn7[C@H]6C[C@@H](NC(=O)c7c(Cl)cccc7Cl)C6)CC5)CC4)cc3C2=O)C(=O)N1` (stereo partly drawn) [Compound 171, 2,6-dichloro-N-((1s,3s)-3-(6-(((1-((1-((2-(2,6-dioxopiperidin-3-yl)-1,3-dioxoisoindolin-5-yl)glycyl)piperidin-4-yl)methyl)piperidin-4-yl)methyl)amino)-9H-purin-9-yl)cyclobutyl)benzamide]?
Answer: Enzyme degradation CDK2 (% remaining) @ 0.1 μM (CDK2): 20%; Enzyme degradation CDK2 (% remaining) @ 1 μM (CDK2): 10%; Enzyme degradation CDK2 (% remaining) @ 10 μM (CDK2): 10%; Enzyme degradation CDK9 (% remaining) @ 0.1 μM (CDK9): 0/0/0%; Enzyme degradation CDK9 (% remaining) @ 1 μM (CDK9): 0/0/0%; Enzyme degradation CDK9 (% remaining) @ 10 μM (CDK9): 0/0/0%

Question: `O=C1CC[C@H](N2C(=O)c3cccc(N4CCC(CN5CCC(CNc6ncnc7c6ncn7C6CC(NC(=O)c7c(Cl)cccc7Cl)C6)CC5)CC4)c3C2=O)C(=O)N1` (stereo partly drawn) [Compound 172, 2,6-dichloro-N-((1s,3s)-3-(6-(((1-((1-(2-(2,6-dioxopiperidin-3-yl)-1,3-dioxoisoindolin-4-yl)piperidin-4-yl)methyl)piperidin-4-yl)methyl)amino)-9H-purin-9-yl)cyclobutyl)benzamide] was tested. Which “Enzyme degradation CDK2 (% remaining) @ 0.1 μM” value (CDK2) did it give?
Answer: 10%

Question: And the “Enzyme degradation CDK2 (% remaining) @ 1 μM” value (CDK2)?
Answer: 20%

Question: What about the “Enzyme degradation CDK2 (% remaining) @ 10 μM” value (CDK2) of the same molecule?
Answer: 20%

Question: And the “Enzyme degradation CDK9 (% remaining) @ 0.1 μM” value (CDK9)?
Answer: 50%

Question: And the “Enzyme degradation CDK9 (% remaining) @ 1 μM” value (CDK9)?
Answer: 0%

Question: What about the “Enzyme degradation CDK9 (% remaining) @ 10 μM” value (CDK9) of the same molecule?
Answer: 0%

Question: Which results are given for `O=C1CC[C@H](N2C(=O)c3ccc(N4CCC(CN5CCC(CNc6ncnc7c6ncn7[C@H]6C[C@@H](NC(=O)c7c(Cl)cccc7Cl)C6)CC5)CC4)cc3C2=O)C(=O)N1` [Compound 173, 2,6-dichloro-N-((1s,3s)-3-(6-(((1-((1-(2-(2,6-dioxopiperidin-3-yl)-1,3-dioxoisoindolin-5-yl)piperidin-4-yl)methyl)piperidin-4-yl)methyl)amino)-9H-purin-9-yl)cyclobutyl)benzamide]?
Answer: Enzyme degradation CDK2 (% remaining) @ 0.1 μM (CDK2): 30%; Enzyme degradation CDK2 (% remaining) @ 1 μM (CDK2): 30%; Enzyme degradation CDK2 (% remaining) @ 10 μM (CDK2): 50%; Enzyme degradation CDK9 (% remaining) @ 0.1 μM (CDK9): 50%; Enzyme degradation CDK9 (% remaining) @ 1 μM (CDK9): 20%; Enzyme degradation CDK9 (% remaining) @ 10 μM (CDK9): 0%

Question: Which results are given for `O=C1CC[C@H](N2C(=O)c3ccc(OCC(=O)N4CCC(CN5CCN(c6ccc(Nc7ncnc8c7ncn8C7CC(NC(=O)Cc8ccccc8)C7)cc6)CC5)CC4)cc3C2=O)C(=O)N1` (stereo partly drawn) [Compound 175, N-((1s,3s)-3-(6-((4-(4-((1-(2-((2-(2,6-dioxopiperidin-3-yl)-1,3-dioxoisoindolin-5-yl)oxy)acetyl)piperidin-4-yl)methyl)piperazin-1-yl)phenyl)amino)-9H-purin-9-yl)cyclobutyl)-2-phenylacetamide]?
Answer: Enzyme degradation CDK2 (% remaining) @ 0.1 μM (CDK2): 100%; Enzyme degradation CDK2 (% remaining) @ 1 μM (CDK2): 80%; Enzyme degradation CDK2 (% remaining) @ 10 μM (CDK2): 30%; Enzyme degradation CDK9 (% remaining) @ 0.1 μM (CDK9): 80%; Enzyme degradation CDK9 (% remaining) @ 1 μM (CDK9): 30%; Enzyme degradation CDK9 (% remaining) @ 10 μM (CDK9): 0%

Question: How did the “Enzyme degradation CDK2 (% remaining) @ 0.1 μM” value (CDK2) turn out when `O=C1CC[C@H](N2C(=O)c3ccc(NCC(=O)N4CCC(CN5CCN(c6ccc(Nc7ncnc8c7ncn8C7CC(NC(=O)Cc8ccccc8)C7)cc6)CC5)CC4)cc3C2=O)C(=O)N1` (stereo partly drawn) [Compound 177, N-((1s,3s)-3-(6-((4-(4-((1-((2-(2,6-dioxopiperidin-3-yl)-1,3-dioxoisoindolin-5-yl)glycyl)piperidin-4-yl)methyl)piperazin-1-yl)phenyl)amino)-9H-purin-9-yl)cyclobutyl)-2-phenylacetamide] was run?
Answer: 50%

Question: What about the “Enzyme degradation CDK2 (% remaining) @ 1 μM” value (CDK2) of the same molecule?
Answer: 10%

Question: What about the “Enzyme degradation CDK2 (% remaining) @ 10 μM” value (CDK2) of the same molecule?
Answer: 10%

Question: And the “Enzyme degradation CDK9 (% remaining) @ 0.1 μM” value (CDK9)?
Answer: 30%

Question: And the “Enzyme degradation CDK9 (% remaining) @ 1 μM” value (CDK9)?
Answer: 0%

Question: What about the “Enzyme degradation CDK9 (% remaining) @ 10 μM” value (CDK9) of the same molecule?
Answer: 0%

Question: Which results are given for `O=C1CC[C@H](N2C(=O)c3cccc(N4CCC(CN5CCN(c6ccc(Nc7ncnc8c7ncn8C7CC(NC(=O)Cc8ccccc8)C7)cc6)CC5)CC4)c3C2=O)C(=O)N1` (stereo partly drawn) [Compound 178, N-((1s,3s)-3-(6-((4-(4-((1-(2-(2,6-dioxopiperidin-3-yl)-1,3-dioxoisoindolin-4-yl)piperidin-4-yl)methyl)piperazin-1-yl)phenyl)amino)-9H-purin-9-yl)cyclobutyl)-2-phenylacetamide]?
Answer: Enzyme degradation CDK2 (% remaining) @ 0.1 μM (CDK2): 30%; Enzyme degradation CDK2 (% remaining) @ 1 μM (CDK2): 20%; Enzyme degradation CDK2 (% remaining) @ 10 μM (CDK2): 20%; Enzyme degradation CDK9 (% remaining) @ 0.1 μM (CDK9): 10%; Enzyme degradation CDK9 (% remaining) @ 1 μM (CDK9): 0%; Enzyme degradation CDK9 (% remaining) @ 10 μM (CDK9): 0%

Reference: patent US20260125382A1, “COMPOUNDS FOR INHIBITING OR DEGRADING CDK2 AND/OR CDK9 AND MEDICINAL USE THEREOF” (KOREA RESEARCH INSTITUTE OF CHEMICAL TECHNOLOGY, priority 2022, published 2026)
